According to the NIST ThermoML archive (doi:10.1016/j.jct.2017.07.004):

What was measured:
[1] = xn = mol fraction of the nth substance listed; details: 100 kPa, Liquid, x2 = 0; for viscosity: Concentric cylinders viscometry; for mass density: Vibrating tube method
[2] = 100 kPa, Liquid; for viscosity: Concentric cylinders viscometry; for mass density: Vibrating tube method

CC(C)O [propan-2-ol] + CCC=O
[1]
Details	mass density [kg/m3]	viscosity [mPa·s]
293.15 K	785.4	2.42
298.15 K	781.1	2.08
303.15 K	776.8	1.8
308.15 K	772.4	1.56
313.15 K	768	1.36
318.15 K	763.4	1.19
323.15 K	758.8	1.05

CCC=O [propanal]
[2]
Details	mass density [kg/m3]	viscosity [mPa·s]
293.15 K	802.4	0.34
298.15 K	796.2	0.33
303.15 K	790.3	0.31
308.15 K	784.5	0.3
313.15 K	779	0.28
318.15 K	773.5	0.27
323.15 K	768.2	0.25

CCC(C)O (configuration not stated) [butan-2-ol] + CCC=O
[1]
Details	mass density [kg/m3]	viscosity [mPa·s]
293.15 K	806.7	3.67
298.15 K	802.7	3.04
303.15 K	798.4	2.54
308.15 K	794.1	2.13
313.15 K	789.8	1.8
318.15 K	785.2	1.54
323.15 K	780.6	1.33

CCCC(C)O (configuration not stated) [pentan-2-ol] + CCC=O
[1]
Details	mass density [kg/m3]	viscosity [mPa·s]
293.15 K	809.3	3.97
298.15 K	805.3	3.32
303.15 K	801.2	2.81
308.15 K	797	2.37
313.15 K	792.7	1.99
318.15 K	788.4	1.66
323.15 K	784	1.39

CCCC(C)O (configuration not stated) [pentan-2-ol]
[2]
Details	viscosity [mPa·s]
298.15 K	3.32
303.15 K	2.81
308.15 K	2.37
313.15 K	1.99
318.15 K	1.66
323.15 K	1.39
